Experiments:
[1] = Inhibition of Plasmodium falciparum PFT
Plasmodium falciparum = experiment: Antiplasmodial activity against Plasmodium falciparum 3D7; type: functional, organism-based
[2] = Inhibition of rat PFT

| Structure (SMILES) | pIC50 [1] | IC50 (Plasmodium falciparum) [nM] | pIC50 [2] |
| --- | --- | --- | --- |
| Cn1cncc1CN1CC(N(CC(=O)NC(C)(C)C)S(=O)(=O)c2ccncc2)Cc2cc(C#N)ccc21 (stereo unspecified) | 6 | > 5010 | 6.8 |
| Cn1cncc1CN1CC(N(CC(=O)NC(C)(C)C)S(=O)(=O)c2ccc(F)cc2)Cc2cc(C#N)ccc21 (stereo unspecified) | 7.38 | > 5010 | 8.12 |
| Cn1cncc1CN1CC(N(Cc2ccc3ccccc3c2Br)S(=O)(=O)c2ccccn2)Cc2cc(C#N)ccc21 (stereo unspecified) | 6.78 | 2750 | 6.36 |
| Cn1cnc(S(=O)(=O)N(Cc2ccc3ccccc3c2Br)C2Cc3cc(C#N)ccc3N(Cc3cncn3C)C2)c1 (stereo unspecified) | 7.55 | 3020 | 6 |
| Cn1cncc1CN1CC(N(CC(=O)NC(C)(C)C)S(=O)(=O)c2nccn2C)Cc2cc(C#N)ccc21 (stereo unspecified) | 8.1 | > 5010 | 8.3 |
| Cc1onc(-c2ccccc2)c1CN(C1Cc2cc(C#N)ccc2N(Cc2cncn2C)C1)S(=O)(=O)c1ccccn1 (stereo unspecified) | 9.1 | 112 | 8.52 |
| Cn1cncc1CN1CC(N(CC(=O)NC(C)(C)C)S(=O)(=O)c2cccnc2)Cc2cc(C#N)ccc21 (stereo unspecified) | 7.6 | 2690 | 8.22 |
| Cn1cncc1CN1CC(N(Cc2cc3nsnc3cc2Cl)S(=O)(=O)c2ccccn2)Cc2cc(C#N)ccc21 (stereo unspecified) | 7.26 | 3020 | 8 |

Now those with a lower IC50 (Plasmodium falciparum), led by results:

| pIC50 [1] | IC50 (Plasmodium falciparum) [nM] | pIC50 [2] | Structure (SMILES) |
| --- | --- | --- | --- |
| 9.22 | 6.92 | 9.16 | C=C(C)CN(C1Cc2cc(C#N)ccc2N(Cc2cncn2C)C1)S(=O)(=O)c1cn(C)cn1 (stereo unspecified) |
| 9.4 | 6.03 | 9.1 | C=C(Br)CN(C1Cc2cc(C#N)ccc2N(Cc2cncn2C)C1)S(=O)(=O)c1cn(C)cn1 (stereo unspecified) |
| 8.82 | 55 | 8.47 | Cc1ccccc1CN(C1Cc2cc(C#N)ccc2N(Cc2cncn2C)C1)S(=O)(=O)c1cn(C)cn1 (stereo unspecified) |
| 9.22 | 5.01 | 8.92 | Cn1cnc(S(=O)(=O)N(Cc2ccccc2)C2Cc3cc(C#N)ccc3N(Cc3cncn3C)C2)c1 (stereo unspecified) |
| 8.92 | 5.01 | 8.82 | Cn1cnc(S(=O)(=O)N(CC(=O)NC(C)(C)C)C2Cc3cc(C#N)ccc3N(Cc3cncn3C)C2)c1 (stereo unspecified) |
| 8.96 | 100 | 8.5 | Cn1cnc(S(=O)(=O)N(CC2CCN(C(=O)OC(C)(C)C)CC2)C2Cc3cc(C#N)ccc3N(Cc3cncn3C)C2)c1 (stereo unspecified) |
| 9.05 | 5.01 | 8.92 | Cn1cnc(S(=O)(=O)N(CC(=O)OC(C)(C)C)C2Cc3cc(C#N)ccc3N(Cc3cncn3C)C2)c1 (stereo unspecified) |
| 8.85 | 85.1 | 8.75 | Cn1cncc1CN1CC(N(CC(=O)NC(C)(C)C)S(=O)(=O)c2ccccn2)Cc2cc(C#N)ccc21 (stereo unspecified) |
| 8.55 | 51.3 | 8.42 | Cn1cncc1CN1CC(N(Cc2ccccn2)S(=O)(=O)c2ccccn2)Cc2cc(C#N)ccc21 (stereo unspecified) |

Source: ChEMBL document CHEMBL1154458, “QSAR study on tetrahydroquinoline analogues as plasmodium protein farnesyltransferase inhibitors: a comparison of rationales of malarial and mammalian enzyme inhibitory activities for selectivity” (Eur J Med Chem, 2008)
